# Laboratory results as given in US20240158418A1 (C4 Therapeutics, Inc., priority 2021, published 2024).
# Molecular target: T1, EGFR L858R-T790M (Homo sapiens, UniProt P00533, L858R/T790M)
# T1 construct: NCI-H1975 (harboring EGFR heterozygous L858R-T790M mutations); host or cells: NCI-H1975
# Experiment: EGFR degradation, Total EGFR (L858R-specific) HTRF, NCI-H1975
# Type: cell-based
# Details: Table 9A; NCI-H1975 cells, 6 hours, Total EGFR HTRF; read-out: H1975 EGFR DC50
# Outline: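 FRET signal from HTRF kits measured phospho-EGFR at pY1068 or total EGFR after 6 h treatment at 37 °C. Compounds ran as 11-point half-log dilutions from 10 μM in duplicate, in cells in phenol red-free RPMI with 10% FBS. Concentrations giving 50% inhibition or degradation were reported as IC50 or DC50.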
# T1 sequence (P00533 25-1210 T790M/L858R): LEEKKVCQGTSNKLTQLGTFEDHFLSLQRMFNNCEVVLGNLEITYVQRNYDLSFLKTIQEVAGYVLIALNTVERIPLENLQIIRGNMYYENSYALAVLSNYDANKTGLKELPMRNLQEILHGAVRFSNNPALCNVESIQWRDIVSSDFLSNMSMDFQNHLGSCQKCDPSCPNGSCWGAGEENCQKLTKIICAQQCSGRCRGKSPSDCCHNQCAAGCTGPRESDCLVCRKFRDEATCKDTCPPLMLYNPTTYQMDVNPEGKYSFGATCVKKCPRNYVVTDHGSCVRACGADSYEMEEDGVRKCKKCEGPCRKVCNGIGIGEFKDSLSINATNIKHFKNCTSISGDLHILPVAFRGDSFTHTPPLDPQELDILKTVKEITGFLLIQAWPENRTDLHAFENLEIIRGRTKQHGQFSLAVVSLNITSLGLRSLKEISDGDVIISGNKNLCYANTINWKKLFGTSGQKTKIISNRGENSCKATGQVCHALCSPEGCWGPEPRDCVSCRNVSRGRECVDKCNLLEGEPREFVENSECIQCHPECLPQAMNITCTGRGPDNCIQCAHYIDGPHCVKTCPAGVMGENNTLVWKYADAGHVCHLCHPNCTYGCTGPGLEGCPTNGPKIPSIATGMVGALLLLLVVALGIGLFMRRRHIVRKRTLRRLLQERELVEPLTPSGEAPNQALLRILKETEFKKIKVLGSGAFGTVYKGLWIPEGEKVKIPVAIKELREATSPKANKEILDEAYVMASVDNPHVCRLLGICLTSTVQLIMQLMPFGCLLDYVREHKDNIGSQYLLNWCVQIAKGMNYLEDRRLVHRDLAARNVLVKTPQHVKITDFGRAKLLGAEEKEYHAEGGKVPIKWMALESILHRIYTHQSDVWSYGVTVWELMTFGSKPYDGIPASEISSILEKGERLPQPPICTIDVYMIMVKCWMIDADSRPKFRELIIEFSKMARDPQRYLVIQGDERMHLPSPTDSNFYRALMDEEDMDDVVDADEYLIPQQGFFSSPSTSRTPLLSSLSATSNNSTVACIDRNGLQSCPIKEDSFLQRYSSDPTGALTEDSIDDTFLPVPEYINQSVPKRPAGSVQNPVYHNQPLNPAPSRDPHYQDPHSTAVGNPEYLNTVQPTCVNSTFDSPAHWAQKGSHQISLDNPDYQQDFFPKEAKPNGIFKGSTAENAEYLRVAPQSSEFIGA
row,DC50,Structure (SMILES)
1,50 to 150 nM,"O=C1CCC(Nc2ccc(C3CCN(CC(=O)N4CCN(c5ccc(-c6cc(F)c7cn(C(C(=O)Nc8nccs8)c8ncn9c8CCC9)nc7c6)cn5)CC4)CC3)c(F)c2)C(=O)N1 (stereo not shown) [Compound 64, 2-(6,7-dihydro-5H-pyrrolo[1,2-c]imidazol-1-yl)-2-[6-[6-[4-[2-[4-[4-[(2,6-dioxo-3-piperidyl)amino]-2-fluoro-phenyl]-1-piperidyl]acetyl]piperazin-1-yl]-3-pyridyl]-4-fluoro-indazol-2-yl]-N-thiazol-2-yl-acetamide]"
2,< 50 nM,"O=C1CC[C@@H](Nc2ccc(C3CCN(CC(=O)N4CCC(c5ccc(-c6cc(F)c7c(c6)C(=O)N(C(C(=O)Nc6nccs6)c6ncn8c6CCC8)C7)cc5)CC4)CC3)cc2)C(=O)N1 (stereo partly drawn) [Compound 23, 2-(6,7-dihydro-5H-pyrrolo[1,2-c]imidazol-1-yl)-2-(6-(4-(1-(2-(4-(4-(((R)-2,6-dioxopiperidin-3-yl)amino)phenyl)piperidin-1-yl)acetyl)piperidin-4-yl)phenyl)-4-fluoro-1-oxoisoindolin-2-yl)-N-(thiazol-2-yl)acetamide]"
3,50 to 150 nM,"O=C1CCC(Nc2ccc(C3CCN(CC(=O)N4CCN(c5ccc(-c6cc(Cl)c7cn(C(C(=O)Nc8nccs8)c8ncn9c8CCC9)nc7c6Cl)cc5)CC4)CC3)cc2)C(=O)N1 (racemic) [Compound 61, (2RS)-2-[4,7-Dichloro-6-[4-[4-[2-[4-[4-[[(3RS)-2,6-dioxo-3-piperidyl]amino]phenyl]-1-piperidyl]acetyl]piperazin-1-yl]phenyl]indazol-2-yl]-2-(6,7-dihydro-5H-pyrrolo[1,2-c]imidazol-1-yl)-N-thiazol-2-yl-acetamide]"

# Same assay, conditions: Table 9B; NCI-H1975 cells, 6 hours, Total EGFR HTRF; read-out: H1975 EGFR DC50
row,Structure (SMILES),DC50
1,"Cn1nc(N2CCC(=O)NC2=O)c2ccc(C3CCN(C(=O)CN4CC5(C4)CN(c4ccc(-c6cc(F)c7c(c6)C(=O)N(C(C(=O)Nc6nccs6)c6ncn8c6CCC8)C7)cn4)C5)CC3(F)F)cc21 (stereo not shown) [Compound 118, 2-(6,7-dihydro-5H-pyrrolo[1,2-c]imidazol-1-yl)-2-(6-(6-(6-(2-(4-(3-(2,4-dioxotetrahydropyrimidin-1(2H)-yl)-1-methyl-1H-indazol-6-yl)-3,3-difluoropiperidin-1-yl)-2-oxoethyl)-2,6-diazaspiro[3.3]heptan-2-yl)pyridin-3-yl)-4-fluoro-1-oxoisoindolin-2-yl)-N-(thiazol-2-yl)acetamide]",< 50 nM
2,"O=C1CC[C@@H](Nc2ccc(N3CCC(O)(CC(=O)N4CCC(NC(=O)c5ccc(C#Cc6cc(F)c7c(c6)C(=O)N(C(C(=O)Nc6nccs6)c6ncn8c6C[C@@H](F)C8)C7)cn5)CC4)CC3)c(F)c2)C(=O)N1 (stereo partly drawn) [Compound 108, N-(1-(2-(1-(4-(((R)-2,6-dioxopiperidin-3-yl)amino)-2-fluorophenyl)-4-hydroxypiperidin-4-yl)acetyl)piperidin-4-yl)-5-((7-fluoro-2-(1-((R)-6-fluoro-6,7-dihydro-5H-pyrrolo[1,2-c]imidazol-1-yl)-2-oxo-2-(thiazol-2-ylamino)ethyl)-3-oxoisoindolin-5-yl)ethynyl)picolinamide]",< 50 nM
3,"O=C1CCC(Nc2cnc(N3CCC(O)(CC(=O)N4CC5(C4)CN(c4ccc(-c6cc(F)c7c(c6)C(=O)N(C(C(=O)Nc6nccs6)c6ncn8c6CCC8)C7)cc4)C5)CC3)c(F)c2)C(=O)N1 (stereo not shown) [Compound 90, 2-(6,7-dihydro-5H-pyrrolo[1,2-c]imidazol-1-yl)-2-(6-(4-(6-(2-(1-(5-((2,6-dioxopiperidin-3-yl)amino)-3-fluoropyridin-2-yl)-4-hydroxypiperidin-4-yl)acetyl)-2,6-diazaspiro[3.3]heptan-2-yl)phenyl)-4-fluoro-1-oxoisoindolin-2-yl)-N-(thiazol-2-yl)acetamide]",< 50 nM
4,"Cn1nc(N2CCC(=O)NC2=O)c2ccc(C3CCN(CC(=O)N4CCN(c5ccc(-c6cc(F)c7cn(C(C(=O)Nc8nccs8)c8ncn9c8CCC9)nc7c6)cn5)CC4)CC3(F)F)cc21 (stereo not shown) [Compound 72, 2-(6,7-dihydro-5H-pyrrolo[1,2-c]imidazol-1-yl)-2-(6-(6-(4-(2-(4-(3-(2,4-dioxotetrahydropyrimidin-1(2H)-yl)-1-methyl-1H-indazol-6-yl)-3,3-difluoropiperidin-1-yl)acetyl)piperazin-1-yl)pyridin-3-yl)-4-fluoro-2H-indazol-2-yl)-N-(thiazol-2-yl)acetamide]",< 50 nM
5,"Cn1nc(N2CCC(=O)NC2=O)c2ccc(C3CCN(CC(=O)N4CC5(CCN(c6ccc(-c7cc(F)c8c(c7)C(=O)N(C(C(=O)Nc7nccs7)c7ncn9c7CCC9)C8)cc6)CC5)C4)CC3(F)F)cc21 (stereo not shown) [Compound 106, 2-(6,7-dihydro-5H-pyrrolo[1,2-c]imidazol-1-yl)-2-(6-(4-(2-(2-(4-(3-(2,4-dioxotetrahydropyrimidin-1(2H)-yl)-1-methyl-1H-indazol-6-yl)-3,3-difluoropiperidin-1-yl)acetyl)-2,7-diazaspiro[3.5]nonan-7-yl)phenyl)-4-fluoro-1-oxoisoindolin-2-yl)-N-(thiazol-2-yl)acetamide]",< 50 nM
6,"Cn1nc(N2CCC(=O)NC2=O)c2ccc(C3CCN(CC(=O)N4CC5(C4)CN(c4ccc(-c6cc(F)c7c(c6)C(=O)N(C(C(=O)Nc6nccs6)c6ncn8c6CCC8)C7)cc4)C5)CC3F)cc21 (stereo not shown) [Compound 133, 2-(6,7-dihydro-5H-pyrrolo[1,2-c]imidazol-1-yl)-2-[6-[4-[2-[2-[4-[3-(2,4-dioxohexahydropyrimidin-1-yl)-1-methyl-indazol-6-yl]-3-fluoro-1-piperidyl]acetyl]-2,6-diazaspiro[3.3]heptan-6-yl]phenyl]-4-fluoro-1-oxo-isoindolin-2-yl]-N-thiazol-2-yl-acetamide]",< 50 nM

# The remaining lines, values ahead:
row,DC50,Structure (SMILES)
1,< 50 nM,"O=C1CC[C@@H](Nc2ccc(N3CCC(O)(CC(=O)N4CC5(C4)CN(c4ccc(-c6cc(F)c7c(c6)C(=O)N(C(C(=O)Nc6nccs6)c6ncn8c6C[C@@H](F)C8)C7)cc4)C5)CC3)c(F)c2)C(=O)N1 (stereo partly drawn) [Compound 132, 2-[6-[4-[2-[2-[1-[4-[[(3R)-2,6-dioxo-3-piperidyl]amino]-2-fluoro-phenyl]-4-hydroxy-4-piperidyl]acetyl]-2,6-diazaspiro[3.3]heptan-6-yl]phenyl]-4-fluoro-1-oxo-isoindolin-2-yl]-2-[(6R)-6-fluoro-6,7-dihydro-5H-pyrrolo[1,2-c]imidazol-1-yl]-N-thiazol-2-yl-acetamide]"
2,50 to 150 nM,"O=C1CCC(Nc2ccc(N3CCCC(O)(CC(=O)N4CC5(C4)CN(c4ccc(-c6cc(F)c7c(c6)C(=O)N(C(C(=O)Nc6nccs6)c6ncn8c6CCC8)C7)cc4)C5)CC3)c(F)c2)C(=O)N1 (single isomer, unassigned; isomer a1) [Compound 164, 2-(6,7-dihydro-5H-pyrrolo[1,2-c]imidazol-1-yl)-2-[6-[4-[2-[2-[1-[4-[[2,6-dioxo-3-piperidyl]amino]-2-fluoro-phenyl]-4-hydroxy-azepan-4-yl]acetyl]-2,6-diazaspiro[3.3]heptan-6-yl]phenyl]-4-fluoro-1-oxo-isoindolin-2-yl]-N-thiazol-2-yl-acetamide, isomer A1]"
3,< 50 nM,"O=C1CCC(Nc2ccc(N3CCC(O)(CC(=O)N4CC5(C4)CN(c4ccc(-c6ccc7cn(C(C(=O)Nc8nccs8)c8ncn9c8CCC9)nc7c6F)cn4)C5)CC3)cc2F)C(=O)N1 (stereo not shown) [Compound 71, 2-(6,7-dihydro-5H-pyrrolo[1,2-c]imidazol-1-yl)-2-[6-[6-[2-[2-[1-[4-[(2,6-dioxo-3-piperidyl)amino]-3-fluoro-phenyl]-4-hydroxy-4-piperidyl]acetyl]-2,6-diazaspiro[3.3]heptan-6-yl]-3-pyridyl]-7-fluoro-indazol-2-yl]-N-thiazol-2-yl-acetamide]"
4,< 50 nM,"O=C1CC[C@H](Nc2ccc(N3CCC(O)(CC(=O)N4CC5(C4)CN(c4ccc(-c6ccc7cn(C(C(=O)Nc8nccs8)c8ncn9c8CCC9)nc7c6F)cc4)C5)CC3)c(F)c2)C(=O)N1 (stereo partly drawn) [Compound 78, 2-(6,7-dihydro-5H-pyrrolo[1,2-c]imidazol-1-yl)-2-(6-(4-(6-(2-(1-(4-(((S)-2,6-dioxopiperidin-3-yl)amino)-2-fluorophenyl)-4-hydroxypiperidin-4-yl)acetyl)-2,6-diazaspiro[3.3]heptan-2-yl)phenyl)-7-fluoro-2H-indazol-2-yl)-N-(thiazol-2-yl)acetamide]"
5,> 150 nM,"O=C1CCC(c2ccc(N3CCC(O)(CC(=O)N4CC5(C4)CN(c4ccc(-c6cc(F)c7c(c6)C(=O)N(C(C(=O)Nc6nccs6)c6ncn8c6CCC8)C7)cc4)C5)CC3)c(F)c2)C(=O)N1 (stereo not shown) [Compound 157, 2-(6,7-dihydro-5H-pyrrolo[1,2-c]imidazol-1-yl)-2-(6-(4-(6-(2-(1-(4-(2,6-dioxopiperidin-3-yl)-2-fluorophenyl)-4-hydroxypiperidin-4-yl)acetyl)-2,6-diazaspiro[3.3]heptan-2-yl)phenyl)-4-fluoro-1-oxoisoindolin-2-yl)-N-(thiazol-2-yl)acetamide]"
6,< 50 nM,"O=C1CC[C@H](Nc2ccc(N3CCC(O)(CC(=O)N4CC5(C4)CN(c4ccc(-c6cc(F)c7cn(C(C(=O)Nc8nccs8)c8ncn9c8CCC9)nc7c6)cn4)C5)CC3)c(F)c2)C(=O)N1 (stereo partly drawn) [Compound 75, 2-(6,7-dihydro-5H-pyrrolo[1,2-c]imidazol-1-yl)-2-[6-[6-[2-[2-[1-[4-[[(3S)-2,6-dioxo-3-piperidyl]amino]-2-fluoro-phenyl]-4-hydroxy-4-piperidyl]acetyl]-2,6-diazaspiro[3.3]heptan-6-yl]-3-pyridyl]-4-fluoro-indazol-2-yl]-N-thiazol-2-yl-acetamide]"
7,< 50 nM,"O=C1CCC(Nc2cnc(N3CCC(O)(CC(=O)N4CC5(C4)CN(c4ccc(-c6cc(F)c7c(c6)C(=O)N(C(C(=O)Nc6nccs6)c6ncn8c6CCC8)C7)cc4)C5)CC3)c(F)c2)C(=O)N1 (single isomer, unassigned; isomer 1) [Compound 139, 2-(6,7-dihydro-5H-pyrrolo[1,2-c]imidazol-1-yl)-2-[6-[4-[2-[2-[1-[5-[[2,6-dioxo-3-piperidyl]amino]-3-fluoro-2-pyridyl]-4-hydroxy-4-piperidyl]acetyl]-2,6-diazaspiro[3.3]heptan-6-yl]phenyl]-4-fluoro-1-oxo-isoindolin-2-yl]-N-thiazol-2-yl-acetamide, isomer 1]"
